# Legend:
# Assay in all cases: relative viability (nuclei count vs DMSO), 5 days (fraction); higher = more cells survive
# [1] = compound: CC1=CC(=CC=C1)NC2=NC(=CS2)C3=CC=NC=C3 + CC(=O)Nc1cccc(-n2c(=O)n(C3CC3)c(=O)c3c(Nc4ccc(I)cc4F)n(C)c(=O)c(C)c32)c1 [Trametinib] (partner 0.02 µM)
# Method in brief: (§1)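 Medians of duplicate plates are given as relative viability. That measure is the nuclei count in treated wells divided by the count in vehicle wells. Counts were taken on 4× images of lung cancer cell lines in 1536-well plates, 5 days after pin-tool dosing the day after seeding with one drug alone or a fixed anchor-drug dose plus five library-drug doses (not always all listed) in √10 steps.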
# [2] = compound: CC1=CC(=CC=C1)NC2=NC(=CS2)C3=CC=NC=C3 + Cc1nc(NC(=O)N2CCC[C@H]2C(N)=O)sc1-c1ccnc(C(C)(C)C(F)(F)F)c1 [Alpelisib] (partner 2 µM)
# Method in brief: as §1
# [3] = compound: CC1=CC(=CC=C1)NC2=NC(=CS2)C3=CC=NC=C3 + N=C(N)NC(=N)NCCc1ccccc1 [Phenformin] (partner 250 µM)
# Method in brief: as §1
# Masitinib + Vorinostat = compound: Cc1ccc(NC(=O)c2ccc(CN3CCN(C)CC3)cc2)cc1Nc1nc(-c2cccnc2)cs1 [Masitinib] + O=C(CCCCCCC(=O)Nc1ccccc1)NO [Vorinostat] (partner 1 µM)
# Method in brief: as §1
Cell Line,relative viability ([1]; first compound 0.08 µM),relative viability ([1]; first compound 0.253 µM),relative viability ([1]; first compound 0.8 µM),relative viability ([1]; first compound 2.53 µM),relative viability ([1]; first compound 8 µM),relative viability ([2]; first compound 0.08 µM),relative viability ([2]; first compound 0.253 µM),relative viability ([2]; first compound 0.8 µM),relative viability ([2]; first compound 2.53 µM),relative viability ([2]; first compound 8 µM),relative viability ([3]; first compound 0.08 µM),relative viability ([3]; first compound 0.253 µM),relative viability ([3]; first compound 0.8 µM),relative viability ([3]; first compound 2.53 µM),relative viability ([3]; first compound 8 µM),relative viability (Masitinib + Vorinostat; first compound 0.01 µM),relative viability (Masitinib + Vorinostat; first compound 0.03162 µM),relative viability (Masitinib + Vorinostat; first compound 0.1 µM),relative viability (Masitinib + Vorinostat; first compound 0.3162 µM),relative viability (Masitinib + Vorinostat; first compound 1 µM)
NCI-H1734,0.679,0.712,0.677,0.681,0.614,0.615,0.683,0.672,0.757,0.687,0.401,0.353,0.399,0.456,0.38,0.751,0.756,0.773,0.779,0.794
NCI-H1755,0.734,0.735,0.612,0.642,0.522,0.869,0.856,0.826,0.815,0.548,0.505,0.524,0.566,0.598,0.546,0.617,0.732,0.647,0.758,0.693
NCI-H1793,0.451,0.353,0.348,0.345,0.394,,0.625,0.704,0.69,0.79,0.255,0.293,0.387,0.408,0.316,0.828,0.66,0.712,0.379,0.687
NCI-H1915,0.308,0.29,0.27,0.266,0.27,1.03,0.996,1.07,1.07,0.938,0.38,0.352,0.371,0.372,0.372,,0.488,,0.505,0.541
NCI-H1944,0.345,0.409,0.39,0.362,0.357,0.723,0.726,0.782,0.795,0.646,0.191,0.187,0.203,0.178,0.198,,0.528,,0.547,0.5
NCI-H1975,0.294,0.274,0.335,0.263,0.193,0.609,0.5,0.553,0.475,0.358,0.359,0.362,0.383,0.326,0.296,0.693,0.736,0.724,0.716,0.711
NCI-H1993,0.514,0.517,0.596,0.348,0.461,0.683,0.683,0.719,0.644,0.619,0.445,0.601,0.547,0.529,0.48,0.727,0.527,0.943,0.723,0.762
NCI-H2009,0.249,0.271,0.265,0.267,0.278,1.08,1.16,1.11,1.24,1.21,0.449,0.482,0.46,0.51,0.347,0.664,0.772,0.69,0.654,0.602
NCI-H2023,0.592,0.617,0.429,0.375,0.179,0.616,0.506,0.561,0.516,0.563,0.41,0.33,0.424,0.423,0.351,0.493,0.583,0.66,0.611,0.721
NCI-H2085,0.513,0.376,0.428,0.471,0.426,0.887,1.02,0.946,0.833,0.705,0.709,0.67,0.723,0.676,0.684,0.7,0.829,0.67,0.701,0.822
NCI-H2087,0.178,0.195,0.246,0.164,0.181,0.931,1.14,0.772,1.29,0.932,0.373,0.421,0.449,0.575,0.446,0.532,0.828,0.672,0.72,0.746
NCI-H2126,0.509,0.528,0.426,0.476,0.485,0.664,0.689,0.727,0.71,0.634,0.466,0.439,0.523,0.498,0.523,0.736,0.764,0.8,0.798,0.79
NCI-H2170,0.945,0.935,0.833,0.86,0.668,0.706,0.691,0.639,0.707,0.555,0.396,0.436,0.431,0.4,0.397,0.781,0.708,0.908,0.869,0.823
NCI-H2228,0.418,0.48,0.501,0.44,0.385,0.476,0.644,0.612,0.688,0.502,0.265,0.35,0.266,0.313,0.332,0.604,0.59,0.693,0.593,0.665
NCI-H2347,0.289,0.309,0.256,0.29,0.265,0.821,1.11,0.614,1.07,0.993,0.387,0.381,,0.397,0.419,0.601,0.543,0.647,0.651,0.624
NCI-H2405,0.566,0.571,0.591,,0.552,0.679,0.799,0.578,0.87,0.699,0.344,0.352,0.347,0.411,0.434,0.791,0.937,0.858,0.938,0.909
NCI-H3122,0.204,0.25,0.307,0.321,0.414,0.724,0.794,0.843,1.01,0.923,0.359,0.348,0.364,0.373,0.343,0.844,0.982,1.15,1.14,1.05

# From the supplement of paper PMC10307832
